Test results published in the supplement of paper PMC10883282.
± gives the standard deviation of the averaged measurements.

Legend:
Experiment in all cases: relative viability vs DMSO control (72 h) (fraction); higher = more viable cells
SK-ES-1 = system: SK-ES-1
Summary of the method: (§1)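 Relative viability is percent growth read by ATPLite and averaged over up to triplicate wells. Sarcoma cells were seeded in 384-well plates to reach 80–90% confluence and given 2.5 µl of serially diluted compound after 24 h, from source plates of 10 mM to 0.0002 mM. Incubation lasted 72 h at 37 °C, 5% CO2, with 0.1% DMSO vehicle and a 5 µM positive control, and the data were rescaled so 1 equals full and 0 equals none.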

SW982 = system: SW982
Summary of the method: as §1

A204 = system: A204
Summary of the method: as §1

MES-SA = system: MES-SA
Summary of the method: as §1

RD = system: RD
Summary of the method: as §1

HS729 = system: HS729
Summary of the method: as §1

SK-LMS-1 = system: SK-LMS-1
Summary of the method: as §1

SW1353 = system: SW1353
Summary of the method: as §1

SW872 = system: SW872
Summary of the method: as §1

G401 = system: G401
Summary of the method: as §1

VA-ES-BJ = system: VA-ES-BJ
Summary of the method: as §1

KHOS-240S = system: KHOS-240S
Summary of the method: as §1

CN1CCN(CCOc2cc(OC3CCOCC3)c3c(Nc4c(Cl)ccc5c4OCO5)ncnc3c2)CC1 [Saracatinib]
Conditions	relative viability
A204, 0.00017 µM	1.03 ± 0.014
A204, 0.00051 µM	1.05 ± 0.032
A204, 0.00152 µM	1.06 ± 0.039
A204, 0.00457 µM	1.06 ± 0.028
A204, 0.01372 µM	1.04 ± 0.048
A204, 0.04115 µM	1.01 ± 0.023
A204, 0.1235 µM	0.992 ± 0.053
A204, 0.3704 µM	0.963 ± 0.059
A204, 1.111 µM	0.882 ± 0.047
A204, 3.333 µM	0.679 ± 0.023
A204, 10 µM	0.468 ± 0.052
G401, 0.00017 µM	1.03 ± 0.051
G401, 0.00051 µM	1.05 ± 0.013
G401, 0.00152 µM	1.008 ± 0.0095
G401, 0.00457 µM	1.04 ± 0.051
G401, 0.01372 µM	1.05 ± 0.011
G401, 0.04115 µM	1.01 ± 0.053
G401, 0.1235 µM	0.955 ± 0.036
G401, 0.3704 µM	0.912 ± 0.054
G401, 1.111 µM	0.86 ± 0.064
G401, 3.333 µM	0.797 ± 0.028
G401, 10 µM	0.668 ± 0.047
HS729, 0.00017 µM	1 ± 0.034
HS729, 0.00051 µM	0.991 ± 0.051
HS729, 0.00152 µM	0.97 ± 0.051
HS729, 0.00457 µM	0.983 ± 0.1
HS729, 0.01372 µM	0.885 ± 0.059
HS729, 0.04115 µM	0.867 ± 0.067
HS729, 0.1235 µM	0.869 ± 0.073
HS729, 0.3704 µM	0.792 ± 0.032
HS729, 1.111 µM	0.691 ± 0.029
HS729, 3.333 µM	0.62 ± 0.028
HS729, 10 µM	0.627 ± 0.026
KHOS-240S, 0.00017 µM	1.07 ± 0.016
KHOS-240S, 0.00051 µM	1.08 ± 0.041
KHOS-240S, 0.00152 µM	1.07 ± 0.017
KHOS-240S, 0.00457 µM	1.07 ± 0.042
KHOS-240S, 0.01372 µM	1.07 ± 0.026
KHOS-240S, 0.04115 µM	1.08 ± 0.022
KHOS-240S, 0.1235 µM	1.046 ± 0.007
KHOS-240S, 0.3704 µM	0.934 ± 0.057
KHOS-240S, 1.111 µM	0.802 ± 0.034
KHOS-240S, 3.333 µM	0.614 ± 0.039
KHOS-240S, 10 µM	0.451 ± 0.0052
MES-SA, 0.00017 µM	0.934 ± 0.021
MES-SA, 0.00051 µM	0.933 ± 0.029
MES-SA, 0.00152 µM	0.936 ± 0.029
MES-SA, 0.00457 µM	0.94 ± 0.023
MES-SA, 0.01372 µM	0.959 ± 0.045
MES-SA, 0.04115 µM	0.923 ± 0.035
MES-SA, 0.1235 µM	0.943 ± 0.026
MES-SA, 0.3704 µM	0.925 ± 0.053
MES-SA, 1.111 µM	0.837 ± 0.036
MES-SA, 3.333 µM	0.692 ± 0.031
MES-SA, 10 µM	0.622 ± 0.014
RD, 0.00017 µM	1.05 ± 0.019
RD, 0.00051 µM	1.08 ± 0.027
RD, 0.00152 µM	1.096 ± 0.01
RD, 0.00457 µM	1.08 ± 0.022
RD, 0.01372 µM	1.07 ± 0.036
RD, 0.04115 µM	1.01 ± 0.041
RD, 0.1235 µM	0.948 ± 0.031
RD, 0.3704 µM	0.836 ± 0.023
RD, 1.111 µM	0.786 ± 0.0099
RD, 3.333 µM	0.692 ± 0.028
RD, 10 µM	0.642 ± 0.076
SK-ES-1, 0.00017 µM	0.989 ± 0.039
SK-ES-1, 0.00051 µM	1.05 ± 0.038
SK-ES-1, 0.00152 µM	1.04 ± 0.084
SK-ES-1, 0.00457 µM	1.01 ± 0.081
SK-ES-1, 0.01372 µM	1.04 ± 0.018
SK-ES-1, 0.04115 µM	1.01 ± 0.037
SK-ES-1, 0.1235 µM	0.968 ± 0.056
SK-ES-1, 0.3704 µM	0.951 ± 0.074
SK-ES-1, 1.111 µM	0.903 ± 0.054
SK-ES-1, 3.333 µM	0.81 ± 0.029
SK-ES-1, 10 µM	0.604 ± 0.034
SK-LMS-1, 0.00017 µM	1.03 ± 0.018
SK-LMS-1, 0.00051 µM	1.06 ± 0.012
SK-LMS-1, 0.00152 µM	1.05 ± 0.025
SK-LMS-1, 0.00457 µM	1.04 ± 0.042
SK-LMS-1, 0.01372 µM	1.02 ± 0.017
SK-LMS-1, 0.04115 µM	1.05 ± 0.011
SK-LMS-1, 0.1235 µM	0.973 ± 0.0091
SK-LMS-1, 0.3704 µM	0.933 ± 0.018
SK-LMS-1, 1.111 µM	0.864 ± 0.029
SK-LMS-1, 3.333 µM	0.71 ± 0.026
SK-LMS-1, 10 µM	0.491 ± 0.015
SW872, 0.00017 µM	1.07 ± 0.03
SW872, 0.00051 µM	1.05 ± 0.012
SW872, 0.00152 µM	1.06 ± 0.042
SW872, 0.00457 µM	1.019 ± 0.0055
SW872, 0.01372 µM	1.05 ± 0.025
SW872, 0.04115 µM	0.977 ± 0.042
SW872, 0.1235 µM	0.9173 ± 0.0081
SW872, 0.3704 µM	0.828 ± 0.025
SW872, 1.111 µM	0.693 ± 0.01
SW872, 3.333 µM	0.655 ± 0.041
SW872, 10 µM	0.59 ± 0.04
SW982, 0.00017 µM	1.02 ± 0.028
SW982, 0.00051 µM	1.09 ± 0.012
SW982, 0.00152 µM	1.05 ± 0.011
SW982, 0.00457 µM	1.06 ± 0.043
SW982, 0.01372 µM	1.08 ± 0.028
SW982, 0.04115 µM	1.08 ± 0.07
SW982, 0.1235 µM	0.919 ± 0.034
SW982, 0.3704 µM	0.739 ± 0.047
SW982, 1.111 µM	0.568 ± 0.033
SW982, 3.333 µM	0.486 ± 0.026
SW982, 10 µM	0.442 ± 0.02
SW1353, 0.00017 µM	1.03 ± 0.062
SW1353, 0.00051 µM	0.988 ± 0.038
SW1353, 0.00152 µM	1.02 ± 0.021
SW1353, 0.00457 µM	0.996 ± 0.017
SW1353, 0.01372 µM	0.945 ± 0.047
SW1353, 0.04115 µM	0.929 ± 0.032
SW1353, 0.1235 µM	0.891 ± 0.015
SW1353, 0.3704 µM	0.843 ± 0.02
SW1353, 1.111 µM	0.7072 ± 0.0063
SW1353, 3.333 µM	0.6847 ± 0.0043
SW1353, 10 µM	0.666 ± 0.024
VA-ES-BJ, 0.00017 µM	1.05 ± 0.021
VA-ES-BJ, 0.00051 µM	1.07 ± 0.067
VA-ES-BJ, 0.00152 µM	1.07 ± 0.041
VA-ES-BJ, 0.00457 µM	1.11 ± 0.051
VA-ES-BJ, 0.01372 µM	1.11 ± 0.035
VA-ES-BJ, 0.04115 µM	1.14 ± 0.024
VA-ES-BJ, 0.1235 µM	1.14 ± 0.045
VA-ES-BJ, 0.3704 µM	1.12 ± 0.027
VA-ES-BJ, 1.111 µM	0.941 ± 0.038
VA-ES-BJ, 3.333 µM	0.805 ± 0.043
VA-ES-BJ, 10 µM	0.681 ± 0.042
